Data from ChEMBL document CHEMBL1201862, “PubChem BioAssay data set” (2004).
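Exposure lasted 48 hours, with cells grown in 96-well plates and compounds tested at five concentrations. At the GI50, growth is halved.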 The source made the active and inactive calls. Rule as the data show it: active = GI50 up to about 1.1 µM and inactive = higher.

Columns and labels:
BT-549 = experiment: growth of human tumour cells (NCI), 48 h
MDA-N = experiment: growth of human tumour cells (NCI), 48 h

Row | Compound | GI50 (BT-549) | GI50 (MDA-N)
1 | COc1cccc2c(Nc3ccc(S(=O)(=O)NC(C)=O)cc3)c3ccc([N+](=O)[O-])cc3nc12 | 26.3 µM (inactive) | 36.6 µM (inactive)
2 | COc1ccccc1NC(=O)O/N=C(/Cl)C(C)C | 3.48 µM (inactive) | 13.6 µM (inactive)
3 | CC(C)=CC(=O)O[C@@H]1CC(C)(C)CC2C3=CCC4[C@]56CC[C@](O)(OC5)C(C)(C)C6CC[C@@]4(C)C3(C)CC[C@]21C(=O)O (stereo partly specified) | > 100 µM (inactive) | > 100 µM (inactive)
4 | CC(C)=CCc1c(O)c(CC=C(C)C)c2oc3c(c(=O)c2c1O)C(C=C(C)C)Oc1cc(O)ccc1-3 (stereo unspecified) | 12.2 µM (inactive) | 3.32 µM (inactive)
5 | Oc1cc(Br)cc2cc(Br)cnc12 | 4.58 µM (inactive) | 5.37 µM (inactive)
6 | O=C(N/N=C\c1ccc(Cl)cc1)Nc1ccc2ccccc2c1 | 56.6 µM (inactive) | 86.7 µM (inactive)
7 | C[N+]12C=CC=C1C(N1CCCC1)c1scc(-c3ccccc3)c12 (stereo unspecified) | 4.25 µM (inactive) | 18.8 µM (inactive)
8 | O=c1c2cccnc2n2n1Cc1ccccc1C2 | > 100 µM (inactive) | > 100 µM (inactive)
9 | O=C1c2ccc3c4ccc5c6c(ccc(c7ccc(c2c37)C(=O)N1CCN1CCCCC1)c64)C(=O)N(CCN1CCCCC1)C5=O | > 100 µM (inactive) | > 100 µM (inactive)
10 | CC(=O)Oc1ccccc1C(=O)O [ASPIRIN] | > 100 µM (inactive) | > 100 µM (inactive)
11 | c1cc2c(cc1NC1=NCCO1)CCC2 | – | 3.24 µM (inactive)
12 | N=C(N)NCCCC(NC(=O)OCCCCn1ccc(N)nc1=O)C(=O)O (stereo unspecified) | > 100 µM (inactive) | > 100 µM (inactive)
13 | O=C1/C(=C/c2ccc(Cl)cc2)NC(=S)N1CN1CCCCC1 | – | 63 µM (inactive)
14 | CC1(C)C=Cc2c(cc(O)c3c(=O)c4cc(Cl)ccc4[nH]c23)O1 | 2.63 µM (inactive) | 2.62 µM (inactive)
15 | C=C(Cl)C(Cl)(CBr)CCC(Cl)C(C)(C)Cl (stereo unspecified) | 5.47 µM (inactive) | 1.81 µM (inactive)
16 | CC(=O)O[C@H]1[C@@H](OC2CCCC2(c2ccccc2)c2ccccc2)O[N+]([O-])=C[C@@]12COCc1cc3c(cc12)OCO3 (stereo partly specified) | 23 µM (inactive) | –

Row | Compound | GI50 (BT-549) | GI50 (MDA-N)
17 | CCOC(=O)C(CC#Cc1ccc(C#CCC(NC(C)=O)C(=O)OCC)cc1)NC(C)=O (stereo unspecified) | – | > 100 µM (inactive)
18 | C/C(=N\NC(=S)NCc1ccccc1)c1nc2cccnc2[nH]1 | 6.12 µM (inactive) | 11.3 µM (inactive)
19 | N#CC1(C#N)[C@@H]2CCC=C(Sc3ccccc3)[C@@H]21 | 23 µM (inactive) | 13.9 µM (inactive)
20 | Cc1cccc2nc3cccc(C(=O)NCCC[N+](C)(CCCNC(=O)c4cccc5nc6cccc(C)c6nc45)Cc4ccc([N+](=O)[O-])n4C)c3nc12 | > 100 µM (inactive) | 6.08 µM (inactive)
21 | N#Cc1c(-c2ccc(Cl)cc2)cc(-c2ccc(Nc3ccnc4cc(Cl)ccc34)cc2)[nH]c1=O | 19.6 µM (inactive) | > 100 µM (inactive)
22 | Cc1nc2c(Cl)cc(Cl)cc2c(Cl)c1CCCl | 51.1 µM (inactive) | > 100 µM (inactive)
23 | CC(C)(C)OC(=O)NCCCCCCC(=O)Cc1ccccc1 | > 100 µM (inactive) | > 100 µM (inactive)
24 | Cc1ccc(O)c(Cc2nc3ccccc3nc2-c2cccc(Cl)c2)c1 | > 100 µM (inactive) | 29.5 µM (inactive)
25 | O=C1CNC(=O)/C(=C/c2c[nH]c3ccccc23)N1 | > 100 µM (inactive) | > 100 µM (inactive)
26 | CCN1CCC(O)(c2ccc(Oc3ccc(F)cc3)cc2)C(C(=O)c2ccc(Oc3ccc(F)cc3)cc2)C1 (stereo unspecified) | 15.7 µM (inactive) | 16.9 µM (inactive)
27 | COc1ccc(/N=C(/C[S+]([O-])c2ccc(C)cc2)C(F)(F)F)cc1 (stereo unspecified) | > 100 µM (inactive) | > 100 µM (inactive)
28 | Nc1ccn(C=C=CCO)c(=O)n1 | > 100 µM (inactive) | > 100 µM (inactive)
29 | O=C(c1ccccc1)c1ccc2nc3n(c2c1)C(c1c(F)cccc1F)SC3 (stereo unspecified) | 17.3 µM (inactive) | 1.34 µM (inactive)
30 | COc1ccc(N2/C(=N/c3ccccc3)SC(=N/S(=O)(=O)c3ccccc3)/C2=N\S(=O)(=O)c2ccccc2)cc1 | 24.3 µM (inactive) | –
31 | COc1ccc(C2C3=C(COC3=O)Oc3cc4c(cc32)OCO4)cc1OC (stereo unspecified) | – | 0.135 µM (active)
